Test system: NaIO3-treated ARPE-19 cells
Assay: NaIO3-induced degradation of ARPE-19 cells, MTT cell viability assay
Assay type: cell-based, human
Settings: 16 hours
Description: Cell Culture: ARPE-19 passages 3-7 were used for all experiments. Cells were cultured in %-well plates in DMEM:F12 with 10% of FBS, and incubated at 37° C. with 5% CO2 humidified atmosphere. […] Cell Viability Assay: The colorimetric MTT assay was used to check cell viability. […] At the same time different MBTs, labeled 1 through 10 and summarized in FIG. 2 and Table 2 below, were given to the treatment group at a concentration of 10^6 CFU. After 16 hours of incubation, the absorbance cell viability was evaluated by spectrophotometrically using a microplate reader at 600 nm. Cell Culture: ARPE-19 passages 3-7 were used for all experiments. Cells were cultured in 96-well plates in DMEM:F12 with 10% of FBS, and incubated at 37° C. with 5% CO2 humidified atmosphere. […] Cell Viability Assay: The colorimetric MTT assay was used to check cell viability. […] In the control group, cells were treated only with DMEM:F12 (control media; labeled 'mock-treated' in FIG. 3). […] After 16 hours of incubation, the absorbance cell viability was evaluated by spectrophotometrically using a microplate reader at 600 nm. […] After 16 hours of incubation, the absorbance cell viability was evaluated by spectrophotometrically using a microplate reader at 600 nm. […] After 16 hours of incubation, the absorbance cell viability was evaluated by spectrophotometrically using a microplate reader at 600 nm.

| Structure (SMILES) | cell viability of NaIO3-treated ARPE-19 cells compared to controls (MTT) (1200 μg/ml NaIO3, 0.1% (w/v) of 2-keto-gluconate) | cell viability of NaIO3-treated ARPE-19 cells compared to controls (MTT) (1200 μg/ml NaIO3, all tested concentrations of 5-keto-gluconate (0.1%, 0.2%, 0.4%, 0.5% w/v)) |
| --- | --- | --- |
| O=C(O)C(=O)[C@@H](O)[C@H](O)[C@H](O)CO [2-keto-gluconate] | improved cell viability |  |
| O=C(CO)[C@@H](O)[C@H](O)[C@@H](O)C(=O)O [5-keto-gluconate] |  | improved cell viability |

Source: US20240066075A1, “METHODS AND USES OF MICROBIOME COMPOSITIONS, COMPONENTS, OR METABOLITES FOR TREATING EYE DISORDERS” (MarvelBiome, Inc., priority 2021, published 2024)
